Assay results as given in the kinase profiling compilation of Christmann-Franck et al. (2016).

Assays:
Experiment in all cases: radiometric filter-binding kinase assay, Kinase HotSpot
Conditions in all cases: compound 0.5 µM; ATP 10 µM
GSK3B (human) = GSK3B (human) (UniProt P49841)
PAK1 (human) = PAK1 (human) (UniProt Q13153)
PAK2 (human) = PAK2 (human) (UniProt Q13177)
GRK5 (human) = GRK5 (human) (UniProt P34947)
EPHA6 (human) = EPHA6 (human) (UniProt Q9UF33)
MAP2K1 (human) = MAP2K1 (human) (UniProt Q02750)
CDC42BPB (human) = CDC42BPB (human) (UniProt Q9Y5S2)
NTRK2 (human) = NTRK2 (human) (UniProt Q16620)
PNCK (human) = PNCK (human) (UniProt Q6P2M8)
PNCK (human), sequence (Q6P2M8 whole entry, looked up): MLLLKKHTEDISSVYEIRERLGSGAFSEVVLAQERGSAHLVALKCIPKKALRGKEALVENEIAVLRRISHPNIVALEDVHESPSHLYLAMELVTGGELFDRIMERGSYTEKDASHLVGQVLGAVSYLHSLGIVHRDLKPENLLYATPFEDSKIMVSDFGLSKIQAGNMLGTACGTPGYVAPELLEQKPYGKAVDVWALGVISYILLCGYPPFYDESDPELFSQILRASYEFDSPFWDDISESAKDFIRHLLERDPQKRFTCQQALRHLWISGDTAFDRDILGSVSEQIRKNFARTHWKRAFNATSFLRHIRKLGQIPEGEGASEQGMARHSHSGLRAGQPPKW

FLT3 (human) = FLT3 (human) (UniProt P36888)
SRPK1 (human) = SRPK1 (human) (UniProt Q96SB4)
PRKG2 (human) = PRKG2 (human) (UniProt Q13237)
YES1 (human) = YES1 (human) (UniProt P07947)
PDPK1 (human) = PDPK1 (human) (UniProt O15530)
TGFBR2 (human) = TGFBR2 (human) (UniProt P37173)
CAMK1D (human) = CAMK1D (human) (UniProt Q8IU85)
DAPK2 (human) = DAPK2 (human) (UniProt Q9UIK4)
DAPK2 (human), sequence (Q9UIK4 whole entry, looked up): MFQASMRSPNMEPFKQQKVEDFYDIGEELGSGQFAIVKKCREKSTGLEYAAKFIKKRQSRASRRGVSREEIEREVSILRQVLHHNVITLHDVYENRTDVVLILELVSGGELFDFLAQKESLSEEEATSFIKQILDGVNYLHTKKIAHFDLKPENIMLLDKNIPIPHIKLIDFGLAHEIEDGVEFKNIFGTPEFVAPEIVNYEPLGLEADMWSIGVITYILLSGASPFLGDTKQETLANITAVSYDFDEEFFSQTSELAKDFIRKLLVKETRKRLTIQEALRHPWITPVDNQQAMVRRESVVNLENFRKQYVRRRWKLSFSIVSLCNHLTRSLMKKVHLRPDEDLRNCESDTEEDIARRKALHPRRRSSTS

JAK2 JH1 JH2 (human) = JAK2 JH1 JH2 (human) (UniProt O60674)
JAK2 JH1 JH2 (human), sequence (O60674 whole entry, looked up): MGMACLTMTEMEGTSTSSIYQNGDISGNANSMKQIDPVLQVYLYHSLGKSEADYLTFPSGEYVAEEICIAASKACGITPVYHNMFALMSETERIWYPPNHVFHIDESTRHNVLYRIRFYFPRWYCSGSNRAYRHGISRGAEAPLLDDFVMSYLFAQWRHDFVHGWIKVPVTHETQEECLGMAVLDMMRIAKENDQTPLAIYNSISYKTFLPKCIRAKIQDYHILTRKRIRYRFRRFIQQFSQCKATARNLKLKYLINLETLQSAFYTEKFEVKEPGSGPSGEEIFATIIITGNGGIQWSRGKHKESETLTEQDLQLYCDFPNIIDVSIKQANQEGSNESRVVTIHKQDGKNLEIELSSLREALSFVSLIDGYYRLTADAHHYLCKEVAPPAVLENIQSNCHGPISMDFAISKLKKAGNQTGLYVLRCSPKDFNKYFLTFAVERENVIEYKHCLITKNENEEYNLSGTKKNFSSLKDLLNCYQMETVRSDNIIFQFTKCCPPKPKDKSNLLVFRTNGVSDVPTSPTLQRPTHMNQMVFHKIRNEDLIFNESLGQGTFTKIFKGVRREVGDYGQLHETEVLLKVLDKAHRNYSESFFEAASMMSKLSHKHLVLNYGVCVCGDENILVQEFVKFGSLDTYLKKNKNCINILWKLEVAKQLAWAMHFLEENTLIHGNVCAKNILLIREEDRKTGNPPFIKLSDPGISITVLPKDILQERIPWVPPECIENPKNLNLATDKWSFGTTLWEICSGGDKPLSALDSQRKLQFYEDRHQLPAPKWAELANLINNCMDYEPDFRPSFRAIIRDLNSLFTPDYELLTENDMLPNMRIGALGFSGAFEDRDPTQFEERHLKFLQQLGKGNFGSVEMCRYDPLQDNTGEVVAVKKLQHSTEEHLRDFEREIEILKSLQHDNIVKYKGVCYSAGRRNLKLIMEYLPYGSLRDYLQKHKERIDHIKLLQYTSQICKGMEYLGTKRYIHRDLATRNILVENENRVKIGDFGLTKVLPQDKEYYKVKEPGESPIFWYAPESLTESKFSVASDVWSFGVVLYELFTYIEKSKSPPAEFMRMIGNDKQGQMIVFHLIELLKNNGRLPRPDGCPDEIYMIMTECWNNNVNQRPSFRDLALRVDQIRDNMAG

DYRK1B (human) = DYRK1B (human) (UniProt Q9Y463)
DYRK1B (human), sequence (Q9Y463 whole entry, looked up): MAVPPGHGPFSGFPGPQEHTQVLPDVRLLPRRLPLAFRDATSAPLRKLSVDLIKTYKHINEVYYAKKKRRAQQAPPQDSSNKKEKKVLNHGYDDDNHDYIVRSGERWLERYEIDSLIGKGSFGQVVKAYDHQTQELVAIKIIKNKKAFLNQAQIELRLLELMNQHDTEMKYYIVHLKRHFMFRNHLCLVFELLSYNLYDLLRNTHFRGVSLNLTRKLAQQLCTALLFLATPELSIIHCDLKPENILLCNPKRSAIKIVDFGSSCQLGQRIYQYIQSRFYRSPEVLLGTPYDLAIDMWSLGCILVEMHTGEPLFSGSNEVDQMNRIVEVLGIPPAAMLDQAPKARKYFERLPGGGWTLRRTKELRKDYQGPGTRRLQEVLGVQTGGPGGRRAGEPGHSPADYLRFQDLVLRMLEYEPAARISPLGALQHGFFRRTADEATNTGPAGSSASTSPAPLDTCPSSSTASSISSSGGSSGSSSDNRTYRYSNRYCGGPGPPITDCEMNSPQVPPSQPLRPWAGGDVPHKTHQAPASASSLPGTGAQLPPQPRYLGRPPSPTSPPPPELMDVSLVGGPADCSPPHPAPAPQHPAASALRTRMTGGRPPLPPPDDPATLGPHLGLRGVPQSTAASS

JAK3 JH1 JH2 (human) = JAK3 JH1 JH2 (human) (UniProt P52333)
MERTK (human) = MERTK (human) (UniProt Q12866)
PLK3 (human) = PLK3 (human) (UniProt Q9H4B4)
CSNK1G3 (human) = CSNK1G3 (human) (UniProt Q9Y6M4)
FGFR4 (human) = FGFR4 (human) (UniProt P22455)
TAOK2 (human) = TAOK2 (human) (UniProt Q9UL54)
MAPKAPK5 (human) = MAPKAPK5 (human) (UniProt Q8IW41)
MARK1 (human) = MARK1 (human) (UniProt Q9P0L2)
MARK1 (human), sequence (Q9P0L2 whole entry, looked up): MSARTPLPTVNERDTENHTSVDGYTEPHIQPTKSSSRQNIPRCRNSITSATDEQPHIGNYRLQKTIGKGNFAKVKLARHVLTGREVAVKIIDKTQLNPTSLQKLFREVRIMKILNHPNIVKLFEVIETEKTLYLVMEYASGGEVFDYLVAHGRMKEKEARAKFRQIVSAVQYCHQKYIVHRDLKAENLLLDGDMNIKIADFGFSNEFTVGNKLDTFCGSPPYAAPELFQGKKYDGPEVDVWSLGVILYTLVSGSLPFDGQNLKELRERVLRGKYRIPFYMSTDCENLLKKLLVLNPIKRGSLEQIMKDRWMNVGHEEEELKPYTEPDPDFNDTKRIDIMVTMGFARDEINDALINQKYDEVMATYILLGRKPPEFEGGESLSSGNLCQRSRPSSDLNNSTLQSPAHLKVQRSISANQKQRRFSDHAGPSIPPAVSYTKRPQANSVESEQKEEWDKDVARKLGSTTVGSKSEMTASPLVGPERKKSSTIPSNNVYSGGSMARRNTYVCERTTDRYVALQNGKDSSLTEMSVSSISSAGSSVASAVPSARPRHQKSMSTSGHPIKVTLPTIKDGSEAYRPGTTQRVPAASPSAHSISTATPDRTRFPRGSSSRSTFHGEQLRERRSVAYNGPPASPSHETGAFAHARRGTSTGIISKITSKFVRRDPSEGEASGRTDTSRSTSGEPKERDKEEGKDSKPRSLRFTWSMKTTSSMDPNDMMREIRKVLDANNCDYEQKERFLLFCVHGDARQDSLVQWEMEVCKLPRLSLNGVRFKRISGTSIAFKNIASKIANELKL

DYRK4 (human) = DYRK4 (human) (UniProt Q9NR20)
DYRK4 (human), sequence (Q9NR20 whole entry, looked up): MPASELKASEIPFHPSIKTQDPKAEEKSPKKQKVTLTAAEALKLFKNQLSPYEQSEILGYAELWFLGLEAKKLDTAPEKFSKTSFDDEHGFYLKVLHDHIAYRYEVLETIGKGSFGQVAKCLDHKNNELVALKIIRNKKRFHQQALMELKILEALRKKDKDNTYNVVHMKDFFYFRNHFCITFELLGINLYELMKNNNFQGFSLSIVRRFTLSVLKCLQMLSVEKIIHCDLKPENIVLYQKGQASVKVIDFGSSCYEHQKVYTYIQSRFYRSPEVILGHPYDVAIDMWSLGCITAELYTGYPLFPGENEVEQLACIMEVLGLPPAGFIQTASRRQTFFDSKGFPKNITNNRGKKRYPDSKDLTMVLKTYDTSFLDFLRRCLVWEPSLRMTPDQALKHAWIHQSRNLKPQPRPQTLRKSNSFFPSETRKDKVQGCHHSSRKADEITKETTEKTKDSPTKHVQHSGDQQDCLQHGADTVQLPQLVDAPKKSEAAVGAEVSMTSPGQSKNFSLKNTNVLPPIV

ABL2 (human) = ABL2 (human) (UniProt P42684)
CDK9 CCNK (human) = CDK9 CCNK (human) (UniProt O75909+P50750)
PRKCD (human) = PRKCD (human) (UniProt Q05655)
CDK7 CCNH MNAT1 (human) = CDK7 CCNH MNAT1 (human) (UniProt P50613+P51948+P51946)
MAP3K10 (human) = MAP3K10 (human) (UniProt Q02779)
MAP3K10 (human), sequence (Q02779 whole entry, looked up): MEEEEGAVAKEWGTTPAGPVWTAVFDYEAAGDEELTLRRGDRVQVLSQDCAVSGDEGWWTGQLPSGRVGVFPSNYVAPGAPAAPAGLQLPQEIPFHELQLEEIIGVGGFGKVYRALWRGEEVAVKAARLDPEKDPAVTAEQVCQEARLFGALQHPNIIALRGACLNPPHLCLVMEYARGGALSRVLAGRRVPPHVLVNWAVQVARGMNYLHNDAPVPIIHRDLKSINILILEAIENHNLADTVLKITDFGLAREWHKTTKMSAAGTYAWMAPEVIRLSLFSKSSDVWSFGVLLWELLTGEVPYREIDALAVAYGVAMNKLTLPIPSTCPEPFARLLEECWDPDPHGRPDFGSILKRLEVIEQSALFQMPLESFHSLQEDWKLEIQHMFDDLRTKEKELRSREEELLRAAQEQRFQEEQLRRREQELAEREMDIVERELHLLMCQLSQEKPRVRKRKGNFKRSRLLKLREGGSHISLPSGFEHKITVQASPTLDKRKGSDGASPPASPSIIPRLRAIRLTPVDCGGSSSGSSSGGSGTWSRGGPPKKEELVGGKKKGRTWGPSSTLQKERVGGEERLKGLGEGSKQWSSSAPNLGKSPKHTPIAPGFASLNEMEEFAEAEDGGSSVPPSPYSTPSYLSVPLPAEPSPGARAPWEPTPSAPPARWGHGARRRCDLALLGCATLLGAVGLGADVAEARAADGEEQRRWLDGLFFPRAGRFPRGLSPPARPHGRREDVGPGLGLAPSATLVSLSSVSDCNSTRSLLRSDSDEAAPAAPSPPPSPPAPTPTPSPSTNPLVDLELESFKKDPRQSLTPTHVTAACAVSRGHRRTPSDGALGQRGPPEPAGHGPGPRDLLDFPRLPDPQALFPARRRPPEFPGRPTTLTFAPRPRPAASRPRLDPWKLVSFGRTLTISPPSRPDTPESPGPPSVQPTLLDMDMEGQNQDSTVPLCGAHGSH

CDK9 CCNT1 (human) = CDK9 CCNT1 (human) (UniProt P50750+O60563)
ACVRL1 (human) = ACVRL1 (human) (UniProt P37023)
LIMK1 (human) = LIMK1 (human) (UniProt P53667)
[1] = target: TYK2 JH1 catalytic (human) (UniProt P29597)
PBK (human) = PBK (human) (UniProt Q96KB5)
DSTYK (human) = DSTYK (human) (UniProt Q6XUX3)
NUAK1 (human) = NUAK1 (human) (UniProt O60285)
PRKCE (human) = PRKCE (human) (UniProt Q02156)

For `N#CC(C#N)=C(N)/C(C#N)=C/c1ccc(O)cc1`, the residual activity (GSK3B (human)) was 89.5%, the residual activity (PAK1 (human)) was 90.9% and the residual activity (PAK2 (human)) was 86%. It also gave a residual activity (GRK5 (human)) of 113%, a residual activity (EPHA6 (human)) of 98.6% and a residual activity (MAP2K1 (human)) of 93.7%. The residual activity (CDC42BPB (human)) was 109%, the residual activity (NTRK2 (human)) was 95.4% and the residual activity (PNCK (human)) was 97.3%. It also gave a residual activity (FLT3 (human)) of 92.2%, a residual activity (SRPK1 (human)) of 100% and a residual activity (PRKG2 (human)) of 86.9%. The residual activity (YES1 (human)) was 100%, the residual activity (PDPK1 (human)) was 99.4% and the residual activity (TGFBR2 (human)) was 113%. The residual activity (CAMK1D (human)) was 98.9%, the residual activity (DAPK2 (human)) was 95.7% and the residual activity (JAK2 JH1 JH2 (human)) was 102%. It also gave a residual activity (DYRK1B (human)) of 101%, a residual activity (JAK3 JH1 JH2 (human)) of 102% and a residual activity (MERTK (human)) of 93.5%. It also gave a residual activity (PLK3 (human)) of 63.6%, a residual activity (CSNK1G3 (human)) of 100% and a residual activity (FGFR4 (human)) of 91.1%. It also gave a residual activity (TAOK2 (human)) of 97.3%, a residual activity (MAPKAPK5 (human)) of 94.2% and a residual activity (MARK1 (human)) of 111%. For the same compound, the residual activity (DYRK4 (human)) was 107%, the residual activity (ABL2 (human)) was 94.9% and the residual activity (CDK9 CCNK (human)) was 100%. For the same compound, the residual activity (PRKCD (human)) was 93.7%, the residual activity (CDK7 CCNH MNAT1 (human)) was 91.2% and the residual activity (MAP3K10 (human)) was 98%. For the same compound, the residual activity (CDK9 CCNT1 (human)) was 83.9%, the residual activity (ACVRL1 (human)) was 88.8% and the residual activity (LIMK1 (human)) was 89.9%. For the same compound, the residual activity [1] was 97.4%, the residual activity (PBK (human)) was 96.4% and the residual activity (DSTYK (human)) was 92.9%. For the same compound, the residual activity (NUAK1 (human)) was 92.3% and the residual activity (PRKCE (human)) was 89.3%.

`CCC(=O)Nc1ccc2ncnc(Nc3cccc(Br)c3)c2c1` showed a residual activity (GSK3B (human)) of 91.2%, a residual activity (PAK1 (human)) of 96.3% and a residual activity (PAK2 (human)) of 101%. For the same compound, the residual activity (GRK5 (human)) was 107%, the residual activity (EPHA6 (human)) was 79.5% and the residual activity (MAP2K1 (human)) was 105%. For the same compound, the residual activity (CDC42BPB (human)) was 114%, the residual activity (NTRK2 (human)) was 77.1% and the residual activity (PNCK (human)) was 96%. The residual activity (FLT3 (human)) was 94.1%, the residual activity (SRPK1 (human)) was 97% and the residual activity (PRKG2 (human)) was 110%. For the same compound, the residual activity (YES1 (human)) was 87%, the residual activity (PDPK1 (human)) was 107% and the residual activity (TGFBR2 (human)) was 116%. The residual activity (CAMK1D (human)) was 104%, the residual activity (DAPK2 (human)) was 121% and the residual activity (JAK2 JH1 JH2 (human)) was 103%. The residual activity (DYRK1B (human)) was 95.2%, the residual activity (JAK3 JH1 JH2 (human)) was 98.3% and the residual activity (MERTK (human)) was 83.9%. It also gave a residual activity (PLK3 (human)) of 93.2%, a residual activity (CSNK1G3 (human)) of 91.6% and a residual activity (FGFR4 (human)) of 95.2%. For the same compound, the residual activity (TAOK2 (human)) was 91.4%, the residual activity (MAPKAPK5 (human)) was 105% and the residual activity (MARK1 (human)) was 98.5%. The residual activity (DYRK4 (human)) was 113%, the residual activity (ABL2 (human)) was 96.6% and the residual activity (CDK9 CCNK (human)) was 94.1%. It also gave a residual activity (PRKCD (human)) of 93.8%, a residual activity (CDK7 CCNH MNAT1 (human)) of 102% and a residual activity (MAP3K10 (human)) of 91.2%. It also gave a residual activity (CDK9 CCNT1 (human)) of 93.7%, a residual activity (ACVRL1 (human)) of 97.4% and a residual activity (LIMK1 (human)) of 88.7%. For the same compound, the residual activity [1] was 90.2%, the residual activity (PBK (human)) was 96.2% and the residual activity (DSTYK (human)) was 91.3%. For the same compound, the residual activity (NUAK1 (human)) was 87.3% and the residual activity (PRKCE (human)) was 99.7%.
